Literature values, collected in US20050119262A1, “Method for preventing or treating an optic neuropathy with a cox-2 inhibitor and an intraocular pressure reducing agent” (Pharmacia Corporation, priority 2003, published 2005).

Conditions: patients with ocular hypertension and glaucoma

In the case of `CC(=O)Oc1ccccc1C(=O)O` [acetylsalicylic acid], the “effect on IOP” value is given as “no affect on IOP”.
